Where a name gives a salt, the structure may show the parent alone.
What was measured:
[1] = tested on: IFN-γ fused to a stabile form of EGFP; test: Clones with IFN-γ regulatory elements fused to a stabile form of EGFP; format: cell-based, mouse
Protocol: (§1) Samples were analyzed in an EPICS® XL-MCL Coulter flow cytometer with Expo v.2 Analysis Software/Expo32 Analysis Software (Applied Cytometry Systems, Sheffield, UK). or any other suitable flow cytometer. Viable and dead cells were gated separately and results were determined based on fluorescence associated with viable cells only. Regions were set in control cells and the same regions were used in induction controls and chemically challenged cells. Percent positive cells and fluorescence intensity were noted and used in further calculations.
(§2) Index numbers were calculated from the median fluorescence intensity of viable cells. Cells incubated in the absence or presence of ionomycin/PMA were analysed separately. Each clone incubated with or without ionomycin/PMA, but without further chemicals/compounds was defined as index number=1, and the index numbers for the other exposures were calculated from this.
(§3) One way ANOVAs (one way analysis of variance) were performed. In cases where normality failed, we used Kruskal-Wallis One Way Analysis of Variance on Ranks. If the differences between groups were statistically significant (p<0.05), we continued with tests for multiple comparisons. In normally distributed data we used Bonferroni t-test and multiple comparisons versus the control. The control was chosen to be the sample incubated in the presence or absence of ionomycin/PMA only. When normality failed we used […] for multiple comparisons versus the control.

[2] = tested on: IL-2 promoter dEGFP reporter, EL/p1-5′IL2-dEGFP/6 (EL4); test: Prototype cell chip, flow cytometry, IL-2 clone; format: cell-based, mouse
Protocol: as §1
as §2, with “this. Experiments with the same exposures were pooled to perform statistical analysis, using SigmaStat 2.03 statistical analysis software (SPSS Inc., Chicago, Ill. USA).” for “this.”
as §3
(§4) The following cell lines: EL/pCA-dEGFP/9, EL/p1-5′IL2-dEGFP/6, EL/p2-5′ IL4-dEGFP/2, EL/p1-5′IFNγ-dEGFP/3, and EL/p2-5′IL10-dEGFP/5, obtained by transfection with the DNA constructs containing promoter region derived from β-actin, IL2, IL4, INF-γ, and IL10 were employed to design the prototype cell chip. The prototype cell chip was used to test the activity of different substances.

[3] = tested on: IL-10 promoter dEGFP reporter, EL/p2-5′IL10-dEGFP/5 (EL4); test: Prototype cell chip, flow cytometry, IL-10 clone; format: cell-based
Protocol: as §1
as §2, with “this. Experiments with the same exposures were pooled to perform statistical analysis, using SigmaStat 2.03 statistical analysis software (SPSS Inc., Chicago, Ill. USA).” for “this.”
as §3, §4

[4] = tested on: β-actin promoter dEGFP reporter, EL/pCA-dEGFP/9 (EL4); test: Prototype cell chip, flow cytometry, control clone; format: cell-based
Protocol: as §1
as §2, with “this. Experiments with the same exposures were pooled to perform statistical analysis, using SigmaStat 2.03 statistical analysis software (SPSS Inc., Chicago, Ill. USA).” for “this.”
as §3, §4

[5] = tested on: IL-4 promoter dEGFP reporter, EL/p2-5′IL4-dEGFP/2 (EL4); test: Prototype cell chip, flow cytometry, IL-4 clone; format: cell-based, mouse
Protocol: as §1
as §2, with “this. Experiments with the same exposures were pooled to perform statistical analysis, using SigmaStat 2.03 statistical analysis software (SPSS Inc., Chicago, Ill. USA).” for “this.”
as §3, §4

[6] = tested on: cell lines developed in the project; test: Cytotoxicity (cell viability) testing, LDH release; settings: for concentration which led to 10% cytotoxicity: highest concentration used on the cell chip
Protocol: The basic cytotoxicty assay employed was LDH release. Several cytotoxicity assays were performed independently in two laboratories. […] In addition, the cytotoxicity associated with the solvent was also tested to eliminate the possibility of interference in the test outcome.
Cells were plated in 24 well microtiter plates at a density of 0.5×10^6 cells/mL and with a final volume of 1.5 mL/well. Two controls were included for each cell line, in each experiment.

[7] = tested on: IFN-γ promoter dEGFP reporter, EL/p1-5′IFNγ-dEGFP/3 (EL4); test: Prototype cell chip, flow cytometry, IFN-γ clone; format: cell-based, mouse
Protocol: as §1
as §2, with “this. Experiments with the same exposures were pooled to perform statistical analysis, using SigmaStat 2.03 statistical analysis software (SPSS Inc., Chicago, Ill. USA).” for “this.”
as §3, §4

[8] = tested on: IL-2 fused to a stabile form of EGFP; test: Clones with IL-2 regulatory elements fused to a stabile form of EGFP; format: cell-based, mouse
Protocol: as §1, §2, §3

[9] = tested on: J/p4-5′IL1β-dEGFP/4 reporter cell line; format: cell-based
[10] = tested on: IL-1β promoter dEGFP reporter, J/p4-5′IL1β-dEGFP/4 cells; format: cell-based, mouse
[11] = tested on: IFNγ; test: RT-PCR of endogenous cytokine expression in activated reporter cell lines; format: cell-based
Protocol: (§5) In order to correlate the GFP expression data with effects on the expression of endogenous cytokine mRNA, RT-PCR analysis was performed. Non-transfected EL4 and BW5147.3 cells were activated with TPA/ionomycin or anti-CD3 and RNA was prepared. Following cDNA synthesis PCR was performed to detect expression of IL-2, IFNγ, and GAPDH (control). The results generally agree with the GFP expression data. In BW5147.3 cells neither IL-2, nor IFNγ mRNA, could be detected in non-induced cells or after activation. In EL4 cells, IL-2 and IFNγ expression could be induced by TPA/ionomycin, but not anti-CD3.
(§6) For EL4 derived cells basal GFP expression was not affected following treatment with any of the above chemicals. […] This inhibitory effect of Cyclosporine was observed independently in all three laboratories performing such experiments. Furthermore, this inhibition of EGFP expression was detected with all three techniques emplyed for EGFP measurements (i.e. FACS, fluorescence microscope, and Fluorostar).

[12] = tested on: IL-2; test: as above; format: cell-based
Protocol: as §5, §6

[13] = tested on: BW5147.3 derived GFP transfected cell clones; test: BW5147.3 derived GFP transfected cell clones, GFP expression; format: cell-based
Description: BW5147.3 derived GFP transfected cell clones have been also used to test the effects of immunomodulatory compounds.

[14] = tested on: IL-2 reporter cells EL/p1-5′IL2-EGFP/3 and EL/p1-5′IL2-dEGFP/6 (EL4); test: Preliminary test of IL-2 reporter cells (FACS, fluorescence microscope, Fluorostar); format: cell-based, mouse
[15] = presence of ionomycin/PMA, 1:10 dilution
[16] = presence of ionomycin/PMA, 1:100 dilution
[17] = presence of ionomycin/PMA, highest concentration
[18] = absence of ionomycin/PMA, all tested concentrations
[19] = presence of ionomycin/PMA, all tested concentrations, 24 h
[20] = absence of ionomycin/PMA, highest concentration
[21] = presence of ionomycin/PMA, all tested concentrations
[22] = absence of ionomycin/PMA, highest concentration, 24 h
[23] = presence of ionomycin/PMA, highest concentration, 24 h
[24] = presence of ionomycin/PMA, 1:10 dilution, 24 h
[25] = absence of ionomycin/PMA, 1:10 dilution, 24 h

O=C1CCC(N2C(=O)c3ccccc3C2=O)C(=O)N1 (racemic) [thalidomide, (+/−)—Thalidomide]
IFN-γ expression, stabile EGFP clone [1, 15]: did not show detectable effects | IFN-γ expression, stabile EGFP clone [1, 16]: did not show detectable effects | IFN-γ expression, stabile EGFP clone [1, 17]: dose-dependent inhibition | IL-2 clone fluorescence vs control [2, 18]: did not show any significant changes | IL-2 clone fluorescence vs control [2, 19]: only actin inhibited | IL-10 clone fluorescence vs control [3, 18]: did not show any significant changes | IL-10 clone fluorescence vs control [3, 19]: only actin inhibited | actin clone, inhibition [4, 20]: 5-10% | actin clone fluorescence vs control [4, 17]: inhibited | IL-4 clone fluorescence vs control [5, 18]: did not show any significant changes | IL-4 clone fluorescence vs control [5, 19]: only actin inhibited | toxicity (LDH-assay) [6]: did not find thalidomide to be toxic | IFN-γ clone fluorescence vs control [7, 18]: did not show any significant changes | IFN-γ clone fluorescence vs control [7, 19]: only actin inhibited | IL-2 inhibition, stabile EGFP clone [8, 20]: 10% | IL-2 expression, stabile EGFP clone [8, 15]: did not show detectable effects | IL-2 expression, stabile EGFP clone [8, 16]: did not show detectable effects | IL-2 expression, stabile EGFP clone [8, 17]: dose-dependent inhibition

O=[N+]([O-])c1ccc(Cl)c([N+](=O)[O-])c1 [DNCB, 1-Chloro-2,4-dinitrobenzene]
IFN-γ expression, stabile EGFP clone [1, 20]: apparently dose-dependent increase reaching statistical significance at the highest concentration | IFN-γ expression, stabile EGFP clone [1, 21]: failed to alter expression | IL-2 clone fluorescence vs control [2, 22]: increased expression | IL-2 clone fluorescence vs control [2, 19]: no statistically significant changes were found | IL-10 clone fluorescence vs control [3, 19]: no statistically significant changes were found | actin clone fluorescence vs control [4, 22]: increased expression | actin clone fluorescence vs control [4, 19]: no statistically significant changes were found | IL-4 clone fluorescence vs control [5, 22]: increased expression | IL-4 clone fluorescence vs control [5, 19]: no statistically significant changes were found | concentration which led to 10% cytotoxicity [6]: 10 µM | IFN-γ clone fluorescence vs control [7, 22]: increased expression | IFN-γ clone fluorescence vs control [7, 19]: no statistically significant changes were found | IL-2 expression, stabile EGFP clone [8, 21]: failed to alter expression

[Cl][Pt-2]([Cl])([Cl])[Cl].[K+].[K+] [K2PtCl4, Potassium tetrachloro-platinate (II)]
IFN-γ expression, stabile EGFP clone [1, 18]: exposure effects were not observed | IFN-γ expression, stabile EGFP clone [1, 17]: dose-dependent reduction | NO levels in supernatants [9]: elevated levels | GFP fluorescence under microscope [10]: didn′t show noticeable fluorescence | mRNA for GFP ([10]; 100 μM, stimulated for 6 h): upregulation of mRNA for GFP | IL-2 expression, stabile EGFP clone [8, 18]: exposure effects were not observed | IL-2 expression, stabile EGFP clone [8, 17]: dose-dependent reduction

CO[C@H]1C[C@@H]2CC[C@@H](C)[C@@](O)(O2)C(=O)C(=O)N2CCCC[C@H]2C(=O)O[C@H]([C@H](C)C[C@@H]2CC[C@@H](O)[C@H](OC)C2)CC(=O)[C@H](C)/C=C(\C)[C@@H](O)[C@@H](OC)C(=O)[C@H](C)C[C@H](C)/C=C/C=C/C=C/1C [Rapamycin]
concentration which led to 10% cytotoxicity [6]: 10000 ng/mL

CCCCCCCCCCCCOS(=O)(=O)[O-].[Na+] [SDS, Sodium Dodecyl Sulphate]
IFN-γ expression, stabile EGFP clone [1, 18]: exposure effects were not observed | IFN-γ expression, stabile EGFP clone [1, 21]: not affected | IL-2 expression, stabile EGFP clone [8, 18]: exposure effects were not observed | IL-2 expression, stabile EGFP clone [8, 17]: apparently dose-dependent reduction

CCC[CH2][Sn]([CH2]CCC)([CH2]CCC)[O][Sn]([CH2]CCC)([CH2]CCC)[CH2]CCC [TBTO, Bis(tri-n-butyltin) oxide]
IFN-γ expression, stabile EGFP clone [1, 18]: failed to show altered expression | IL-2 expression, stabile EGFP clone [8, 18]: failed to show altered expression | IL-2 expression, stabile EGFP clone [8, 15]: statistically significant inhibition | IL-2 inhibition, stabile EGFP clone [8, 15]: 10%

Clc1cc2c(cc1Cl)Oc1cc(Cl)c(Cl)cc1O2 [TCDD]
upregulation of expression of IFNγ (RT-PCR) [11]: had no effect | upregulation of expression of IL-2 (RT-PCR) [12]: had no effect | basal GFP expression [13]: did not affect the basal GFP expression | basal GFP expression ([14]; EL4 derived cells, not activated): not affected | activation induced GFP expression ([14]; activation with TPA/ionophore): did not have any effect

Cc1ccc(N=C=O)cc1N=C=O [TDI, Tolylene 2,4-diisocyanate]
IL-4 clone fluorescence vs control [5, 23]: statistically significant increase | concentration which led to 10% cytotoxicity [6]: 500 µM | IFN-γ clone fluorescence vs control [7, 22]: significant induction

CCOC(=O)c1ccc(N)cc1 [benzocaine, Ethyl-4-Aminobenzoate]
IL-2 clone fluorescence vs control [2, 24]: statistically significant inhibitory effect | IL-2 clone fluorescence vs control [2, 23]: statistically significant inhibitory effect | IL-10 clone fluorescence vs control [3, 24]: statistically significant inhibitory effect | IL-10 clone fluorescence vs control [3, 23]: statistically significant inhibitory effect | actin clone fluorescence vs control [4, 22]: significantly increased | toxicity (LDH-assay) [6]: did not find benzocaine to be toxic | IFN-γ clone fluorescence vs control [7, 23]: inhibited

[Cl][Hg][Cl] [mercuric chloride, Mercury (II) chloride]
IFN-γ expression, stabile EGFP clone [1, 18]: exposure effects were not observed | IFN-γ expression, stabile EGFP clone [1, 17]: apparently dose-dependent reduction | IL-2 expression, stabile EGFP clone [8, 18]: exposure effects were not observed | IL-2 expression, stabile EGFP clone [8, 21]: not affected

N=C(N)c1ccc(OCCCCCOc2ccc(C(=N)N)cc2)cc1 [pentamidine, Pentamidine isethionate salt]
IL-2 clone fluorescence vs control [2, 24]: suppressed | IL-2 clone fluorescence vs control [2, 23]: suppressed | IL-10 clone fluorescence vs control [3, 25]: clearly inhibited | IL-10 clone fluorescence vs control [3, 22]: clearly inhibited | IL-10 clone fluorescence vs control [3, 24]: suppressed | IL-10 clone fluorescence vs control [3, 23]: suppressed | actin clone fluorescence vs control [4, 25]: increase | actin clone fluorescence vs control [4, 22]: increase | actin clone fluorescence vs control [4, 19]: not altered | IL-4 clone fluorescence vs control [5, 24]: suppressed | IL-4 clone fluorescence vs control [5, 23]: suppressed | concentration which led to 10% cytotoxicity [6]: 30000 ng/mL | IFN-γ clone fluorescence vs control [7, 23]: suppressed
